From PMC10866072, “Design, synthesis, molecular modelling and biological evaluation of novel 6-amino-5-cyano-2-thiopyrimidine derivatives as potent anticancer agents against leukemia and apoptotic inducers” (Journal of Enzyme Inhibition and Medicinal Chemistry, 2024)
Where two headings read alike, the source gives them in different places.

Columns and labels:
HL-60(TB) = type: cell-based
EKVX = type: cell-based
HOP-62 = type: cell-based
NCI-H522 = type: cell-based
SNB-19 = type: cell-based
SNB-75 = type: cell-based
M14 = type: cell-based
OVCAR-8 = type: cell-based
CAKI-1 = type: cell-based
[1] = test system: caspase 3 level in HL60 cells; experiment: Caspase 3 ELISA; type: cell-based, human; settings: HL 60 cells
Procedure: (§1) One of the most significant downstream caspases, Caspase-3, is referred to as an effector caspase[94]^,[95]. For further analysis, the effect of compound 1c on caspase 3 enzyme level was measured using ELISA kit (Invitrogen, Catalog # KHO1091) according to the manufacturer’s instructions. Briefly, 100 µl of the standard diluent buffer to the zero standard wells. Additionally, 100 µl of standards and controls or diluted samples were added to the appropriate microtiter wells, then wells were covered with plate cover and incubated for 2 h at R.T. Afterwards, wells were aspirated gently, washed with washing buffer 4 times. Furthermore, 100 µl of caspase 3 detection antibody was added into each well except the blank wells, and the plate was covered and incubated for 1 h at R.T. Then, the aspiration and washing steps were repeated again. Finally, 100 µl of the stabilised chromogen solution were added, plate was incubated for 30 min at R.T., stop solution was used to stop the reaction and the developed colour was measured at wave length 450 nm using plat ELISA reader.

[2] = test system: caspase 3 level in leukaemia SR cells; experiment: Caspase 3 ELISA; type: cell-based, human
Procedure: as §1

[3] = test system: Bax protein in HL60 cells; experiment: Western blot; type: cell-based, human
Procedure: (§2) To assess the effect of compound 1c on protein expression of apoptotic and anti-apoptotic proteins levels, western blotting for selected candidate genes were performed[96]^,[97].Briefly, equal amounts (20 µg) of protein samples were mixed and boiled with SDS Loading buffer for 10 min, allowed to cool on ice and then loaded into SDS-polyacrylamide gel and separated by Cleaver electrophoresis unit (Cleaver, UK), transferred onto polyvinylidene fluoride (PVDF) membranes (BioRad) for 30 min using a Semi-dry Electro blotter (Biorad, USA) at 2.5 A and 25 V for 30 min. Additionally, the membrane was blocked by 5% non-fat dry milk solution in TBS-T for two hours at RT, in order to reduce non-specific protein interactions between the membrane and the antibody. Furthermore, the membrane was incubated overnight at 4 °C with primary antibodies, anti B-actin (Sigma ®), anti-Bax, anti-Bcl2, and anti-P53 (Abcam ®). The blots were then washed for three times (10 min each) with TBS-T. Finally, the membrane was incubated with the corresponding horse radish peroxidase (HRP)- linked secondary antibodies (Dako) for another hour at room temperature, followed by washing for three times (10 min each) with TBS-T. Then, the chemiluminescent reagent (ECL) was added according to the kit instructions and signals were detected by a CCD camera-based imager (Chemi Doc imager, Biorad, USA), and the bands intensities were measured by ImageLab (Biorad).

[4] = test system: Bax protein in leukaemia SR cells; experiment: Western blot; type: cell-based, human
Procedure: as §2

[5] = test system: Bcl2 protein in HL60 cells; experiment: Western blot; type: cell-based, human
Procedure: as §2

[6] = test system: Bcl2 protein in leukaemia SR cells; experiment: Western blot; type: cell-based, human
Procedure: as §2

[7] = test system: P53 protein in HL60 cells; experiment: Western blot; type: cell-based, human
Procedure: as §2

[8] = MTT cytotoxicity on normal cells; type: cell-based; settings: human, WI-38 cells (normal lung fibroblasts), WI-38 normal cells, mean ± SD of three experiments, read-out: IC50 (cytotoxic activity)
Procedure: The American Type Culture Collection provided WI-38 cells (normal lung cells). The cells were grown in DMEM with 10% heat-inactivated FBS (Hyclone), 10 µg/ml of insulin (Sigma), and 1% penicillin-streptomycin. The remaining chemicals and reagents were all from Sigma or Invitrogen. The MTT test was used to evaluate cytotoxicity, as described previously. Graph pad Prism software (San Diego, CA) was used to estimate the 50% inhibitory concentration (IC50) from dose response curve graphic plots for each conc.

CNS Cancer cell lines = experiment: NCI-60 five-dose, subpanel
From the text: (§3) Furthermore, the average sensitivity of all cell lines to the compound is termed as the full panel mean graph midpoints (MG-MID). The complete panel mean graph midpoints refers to the average sensitivity of all cell lines to the chemical (MG-MID). A measure of a compound’s selectivity for a given cell line is the ratio created by dividing the full panel mean graph midpoints (MG-MID) concentration by the individual subpanel MG-MID concentrations (obtained as the average sensitivity of all the cell lines in a given subpanel to the test compound).
(§4) Assessment of selectivity of a compound depends on the ratio obtained by dividing the full panel MID ^a by their individual subpanel MID ^b (µM) where MID^a is the average sensitivity of all cell lines towards the test agent (µM).

melanoma cell lines = experiment: NCI-60 five-dose, subpanel
From the text: as §3, §4

[9] = test system: Prostate cancer cell lines; experiment: NCI-60 five-dose, subpanel
From the text: A measure of a compound’s selectivity for a given cell line is the ratio created by dividing the full panel mean graph midpoints (MG-MID) concentration by the individual subpanel MG-MID concentrations (obtained as the average sensitivity of all the cell lines in a given subpanel to the test compound).
as §4

[10] = test system: full NCI 60 cell lines panel
[11] = Homo sapiens, five-dose, read-out: LC50 (the source's name)
[12] = Homo sapiens, one dose 10^-5 M, 48 h
[13] = Homo sapiens, read-out: GI50 Subpanel MID^b

N#Cc1c(N)nc(S)nc1-c1ccc(Cl)cc1Cl [Compound 1c, 4-Amino-6–(2,4-dichlorophenyl)-2-mercaptopyrimidine-5-carbonitrile]
GI50 (HL-60(TB); Homo sapiens, five-dose): 80 nM
CC50 (HL-60(TB); [11]): > 100 µM
% growth at 10 µM (HL-60(TB); [12]): 5.3%
TGI (HL-60(TB); five-dose): 1.82 µM
GI50 (EKVX; Homo sapiens, five-dose): 14.3 µM
LC50 (EKVX; Homo sapiens, five-dose): 62.6 µM
% cell growth at 10 µM (EKVX; [12]): 98.6%
TGI (EKVX; five-dose): 29.90 µM
GI50 (HOP-62; Homo sapiens, five-dose): 18.2 µM
LC50 (concentration killing 50% of cells) (HOP-62; Homo sapiens, five-dose): 88.6 µM
% growth at 10 µM (HOP-62; [12]): 81.3%
TGI (HOP-62; five-dose): 40.20 µM
GI50 (NCI-H522; Homo sapiens, five-dose): 15.4 µM
CC50 (NCI-H522; [11]): 61.3 µM
% growth at 10 µM (NCI-H522; [12]): 49.4%
TGI (NCI-H522; five-dose): 30.70 µM
GI50 (SNB-19; Homo sapiens, five-dose): 17 µM
CC50 (SNB-19; [11]): > 100 µM
activity at 10 µM (SNB-19; Homo sapiens, one dose 10^-5 M, 48 h, read-out: % growth): 75.4%
TGI (SNB-19; five-dose): 50.00 µM
GI50 (SNB-75; Homo sapiens, five-dose): 4.9 µM
LC50 (SNB-75; Homo sapiens, five-dose): 79.9 µM
% growth at 10 µM (SNB-75; [12]): 36.5%
TGI (SNB-75; five-dose): 25.50 µM
GI50 (M14; Homo sapiens, five-dose): 2420 nM
CC50 (M14; [11]): 93.7 µM
% growth at 10 µM (M14; [12]): 49.8%
TGI (M14; five-dose): 28.00 µM
GI50 (OVCAR-8; Homo sapiens, five-dose): 21.8 µM
CC50 (OVCAR-8; [11]): > 100 µM
% growth of cells at 10 µM (OVCAR-8; [12]): 5.74%
TGI (OVCAR-8; five-dose): 74.70 µM
% growth at 10 µM (CAKI-1; Homo sapiens, CAKI-1, 48 h, one dose 10^-5 M, 48 h): 72.3%
GI50 (CAKI-1; Homo sapiens, five-dose): 18.4 µM
CC50 (CAKI-1; [11]): > 100 µM
TGI (CAKI-1; five-dose): 45.70 µM
caspase 3 level increase vs untreated control [1]: 5.6 folds
caspase 3 level increase vs untreated control [2]: 3.4 folds
Bax protein expression vs untreated control [3]: significantly increased the expression
Bax protein expression vs untreated control [4]: significantly increased the expression
Bcl2 protein expression vs untreated control [5]: significantly inhibited the expression
Bcl2 protein expression vs untreated control [6]: significantly inhibited the expression
P53 protein expression vs untreated control [7]: increased the expression of P53 protein significantly
IC50 [8]: 43.6 ± 1.2 µM
Selectivity ratio (full panel MID^a / subpanel MID^b, GI50 level) (CNS Cancer cell lines; CNS cancer): 1.04
GI50 (CNS Cancer cell lines; [13]): 12.4 µM
GI50 (melanoma cell lines; [13]): 10.7 µM
Selectivity ratio (full panel MID^a / subpanel MID^b, GI50 level) (melanoma cell lines; melanoma): 1.2
GI50 [9, 13]: 13 µM
Selectivity ratio (full panel MID^a / subpanel MID^b, GI50 level) ([9]; prostate cancer): 0.99
activity at 10 µM ([10]; Homo sapiens, 60 cell, 48 h, read-out: Mean % growth): 53.3%
CC50 ([10]; Homo sapiens, 60 cell, read-out: LC50 values (MG-MID)): 77.6 µM
GI50 ([10]; Homo sapiens, 60 cell, read-out: MID^a, average sensitivity of all cell lines (GI50)): 12.9 µM
GI50 ([10]; Homo sapiens, 60 cell, read-out: full panel GI50 (MG-MID)): 6.76 µM
log10 GI50, range over all 60 cell lines ([10]; five-dose): −4.50 to −7.25
% growth values, cell lines with lethal effect ([10]; one dose, range over those cell lines): −18.77 to −49.21%
